Test results published in US8981111B2 (priority 2008, dated 2015).

Test: log P (HPLC/MS data of the preparation examples)
Settings: LC-MS, method [b]: pH 2.7 with 0.1% formic acid in water and acetonitrile, linear gradient 10% to 95% acetonitrile

| Compound | log p |
| --- | --- |
| Cn1ccnc1C(=NOCc1nccc(NC(=O)C(C)(C)C)n1)c1ccccc1 [Example 12] | 1.77^[b] |
| CCCCCCC(=O)Nc1ccnc(CON=C(c2ccccc2)c2nccn2C)n1 [Example 14] | 2.39^[b] |
| CC(C)CC(=O)Nc1ccnc(CON=C(c2ccccc2)c2nccn2C)n1 [Example 15] | 1.76^[b] |
| CCCCCC(=O)Nc1ccnc(CON=C(c2ccccc2)c2nccn2C)n1 [Example 16] | 2.1^[b] |
| Cc1ccc(C(=NOCc2cccc(NC(=O)C3CC3)n2)c2ncnn2C)cc1 [Example 17] | 2.73^[b] |
| CCCCCC(=O)Nc1cccc(CON=C(c2ccc(C)cc2)c2ncnn2C)n1 [Example 18] | 3.71^[b] |
| Cc1ccc(C(=NOCc2cccc(NC(=O)C(C)(C)C)n2)c2ncnn2C)cc1 [Example 19] | 3.31^[b] |
| Cc1cccc(C(=NOCc2cccc(NC(=O)C3CC3)n2)c2ncnn2C)c1 [Example 20] | 2.73^[b] |
| CCCCCC(=O)Nc1cccc(CON=C(c2cccc(C)c2)c2ncnn2C)n1 [Example 21] | 3.71^[b] |
| Cc1cccc(C(=NOCc2cccc(NC(=O)C(C)(C)C)n2)c2ncnn2C)c1 [Example 22] | 3.31^[b] |
| Cc1ccccc1C(=NOCc1cccc(NC(=O)C2CC2)n1)c1ncnn1C [Example 23] | 2.48^[b] |
| CCCCCC(=O)Nc1cccc(CON=C(c2ccccc2C)c2ncnn2C)n1 [Example 24] | 3.46^[b] |
| Cc1ccccc1C(=NOCc1cccc(NC(=O)C(C)(C)C)n1)c1ncnn1C [Example 25] | 3.06^[b] |
| Cn1ncnc1C(=NOCc1cccc(NC(=O)C(C)(C)C)n1)c1ccccc1 [Example 26] | 2.98^[b] |
| Cn1ncnc1C(=NOCc1cccc(NC(=O)C2CC2)n1)c1ccccc1 [Example 27] | 2.41^[b] |
| Cn1ncnc1C(=NOCc1cccc(NC(=O)Cc2ccccc2)n1)c1ccccc1 [Example 29] | 3.06^[b] |
| Cc1ccccc1C(=NOCc1cccc(NC(=O)Cc2ccccc2)n1)c1ncnn1C [Example 30] | 3.11^[b] |
| Cc1cccc(C(=NOCc2cccc(NC(=O)Cc3ccccc3)n2)c2ncnn2C)c1 [Example 31] | 3.35^[b] |
| Cn1ccnc1C(=NOCc1cccc(NC(=O)Cc2ccccc2)n1)c1ccccc1 [Example 32] | 2^[b] |
| CCCCCC(=O)Nc1cccc(CON=C(c2ccccc2)c2nccn2C)n1 [Example 33] | 2.23^[b] |
| CCCCCOC(=O)Nc1cccc(CON=C(c2ccccc2)c2ncnn2C)n1 [Example 35] | 3.96^[b] |
| CC(C)CC(=O)Nc1cccc(CON=C(c2ccccc2)c2nccn2C)n1 [Example 36] | 1.89^[b] |
| CCCCCOC(=O)Nc1cccc(CON=C(c2ccccc2)c2nccn2C)n1 [Example 37] | 2.6^[b] |
| CCCCCC(=O)Nc1ccnc(CON=C(c2ccc(C)cc2)c2ncnn2C)n1 [Example 38] | 3.42^[b] |
| Cc1ccc(C(=NOCc2nccc(NC(=O)C(C)(C)C)n2)c2ncnn2C)cc1 [Example 39] | 3.02^[b] |
| Cc1ccc(C(=NOCc2nccc(NC(=O)C3CC3)n2)c2ncnn2C)cc1 [Example 40] | 2.46^[b] |
| CCCCCOC(=O)Nc1ccnc(CON=C(c2ccc(C)cc2)c2ncnn2C)n1 [Example 41] | 3.76^[b] |

| Compound | log p |
| --- | --- |
| COC(=O)CCCC(=O)Nc1cccc(CON=C(c2ccc(C)cc2)c2ncnn2C)n1 [Example 42] | 2.68^[b] |
| COC(=O)CCCC(=O)Nc1cccc(CON=C(c2ccccc2)c2ncnn2C)n1 [Example 43] | 2.39^[b] |
| CCCCCOC(=O)Nc1cccc(CON=C(c2ccc(C)cc2)c2ncnn2C)n1 [Example 44] | 4.31^[b] |
| CCCCCOC(=O)Nc1cccc(CON=C(c2ccccc2C)c2ncnn2C)n1 [Example 45] | 4.06^[b] |
| Cn1ncnc1C(=NOCc1ncc(C(F)(F)F)cc1Cl)c1ccccc1 [Example 47] | 3.44^[b] |
| CCCCCC(=O)Nc1cccc(CON=C(c2cccc(C)c2)c2ncnn2C)n1 [Example 48] | 3.55^[b] |
| Cn1ncnc1C(=NOCc1ccccn1)c1ccccc1 [Example 50] | 1.51^[b] |
| Cn1ncnc1C(=NOCc1ccc2ccccc2n1)c1ccccc1 [Example 51] | 2.51^[b] |
| CCOC(=O)Nc1ccnc(CON=C(c2ccccc2)c2nccn2C)n1 [Example 52] | 1.47^[b] |
| COCC(=O)Nc1ccnc(CON=C(c2ccccc2)c2nccn2C)n1 [Example 53] | 1.2^[b] |
| Cn1ccnc1C(=NOCc1nccc(NC(=O)COCc2ccccc2)n1)c1ccccc1 [Example 54] | 2.04^[b] |
| CCCCCOC(=O)Nc1ccnc(CON=C(c2ccccc2)c2nccn2C)n1 [Example 55] | 2.28^[b] |
| COCCOCC(=O)Nc1ccnc(CON=C(c2ccccc2)c2nccn2C)n1 [Example 56] | 1.34^[b] |
| C=CCOC(=O)Nc1ccnc(CON=C(c2ccccc2)c2nccn2C)n1 [Example 57] | 1.62^[b] |
| CCCC(=O)Nc1ccnc(CON=C(c2ccccc2)c2nccn2C)n1 [Example 58] | 1.68^[b] |
| CCCCC(=O)Nc1ccnc(CON=C(c2ccccc2)c2nccn2C)n1 [Example 59] | 1.95^[b] |
| Cn1nncc1C(=NOCc1cccc(N)n1)c1ccccc1 [Example 60] | 1.11^[b] |
| CC(=O)Nc1ccnc(CON=C(c2ccccc2)c2nccn2C)n1 [Example 62] | 1.13^[b] |
| CCC(=O)Nc1ccnc(CON=C(c2ccccc2)c2nccn2C)n1 [Example 63] | 1.38^[b] |
| Cn1ccnc1C(=NOCc1nccc(NC(=O)CCc2ccccc2)n1)c1ccccc1 [Example 64] | 2.21^[b] |
| CCCCCC(=O)Nc1cccc(CON=C(c2ccccc2)c2cnnn2C)n1 [Example 65] | 3.52^[b] |
| Cn1nncc1C(=NOCc1cccc(NC(=O)C(C)(C)C)n1)c1ccccc1 [Example 66] | 3.11^[b] |
| Cn1nncc1C(=NOCc1cccc(NC(=O)C2CC2)n1)c1ccccc1 [Example 67] | 2.55^[b] |
| Cn1nncc1C(=NOCc1cccc(NC(=O)Cc2ccccc2)n1)c1ccccc1 [Example 68] | 3.19^[b] |
| CCCCCOC(=O)Nc1cccc(CON=C(c2ccccc2)c2cnnn2C)n1 [Example 69] | 2.46^[b] |
| Cn1nncc1C(=NOCc1nccc(N)n1)c1ccccc1 [Example 70] | 0.96^[b] |
| CCCCCC(=O)Nc1ccnc(CON=C(c2ccccc2)c2cnnn2C)n1 [Example 71] | 3.23^[b] |

| Compound | log p |
| --- | --- |
| CCCCS(=O)(=O)Nc1cccc(CON=C(c2ccccc2)c2ncnn2C)n1 [Example 72] | 4.21^[b] |
| CCCCS(=O)(=O)N(c1cccc(CON=C(c2ccccc2)c2ncnn2C)n1)S(=O)(=O)CCCC [Example 73] | 2.73^[b] |
| CCCCS(=O)(=O)Nc1cccc(CON=C(c2ccc(C)cc2)c2ncnn2C)n1 [Example 74] | 3.04^[b] |
| CCCCS(=O)(=O)Nc1cccc(CON=C(c2cccc(C)c2)c2ncnn2C)n1 [Example 75] | 3.04^[b] |
| CCCCS(=O)(=O)Nc1cccc(CON=C(c2ccccc2)c2cnnn2C)n1 [Example 76] | 2.86^[b] |
| Cn1nncc1C(=NOCc1nccc(NC(=O)C(C)(C)C)n1)c1ccccc1 [Example 77] | 2.77^[b] |
| CCCCS(=O)(=O)N(c1cccc(CON=C(c2ccc(C)cc2)c2ncnn2C)n1)S(=O)(=O)CCCC [Example 78] | 4.51^[b] |
| CCCCS(=O)(=O)N(c1cccc(CON=C(c2cccc(C)c2)c2ncnn2C)n1)S(=O)(=O)CCCC [Example 79] | 4.49^[b] |
| CCCCS(=O)(=O)N(c1cccc(CON=C(c2ccccc2)c2cnnn2C)n1)S(=O)(=O)CCCC [Example 80] | 4.26^[b] |
| Cn1nncc1C(=NOCc1nccc(NC(=O)Cc2ccccc2)n1)c1ccccc1 [Example 81] | 2.84^[b] |
| CC(C)CC(=O)Nc1ccnc(CON=C(c2ccccc2)c2cnnn2C)n1 [Example 82] | 2.77^[b] |
| Cn1nncc1C(=NOCc1csc(NC(=O)C(C)(C)C)n1)c1ccccc1 [Example 83] | 3.06^[b] |
| CCCCCOC(=O)Nc1nc(CON=C(c2ccccc2)c2cnnn2C)cs1 [Example 84] | 3.76^[b] |
| CCCCCC(=O)Nc1nc(CON=C(c2ccccc2)c2cnnn2C)cs1 [Example 85] | 3.44^[b] |
| CC(C)CC(=O)Nc1nc(CON=C(c2ccccc2)c2cnnn2C)cs1 [Example 86] | 3^[b] |
| CCCCCOC(=O)Nc1ccnc(CON=C(c2ccccc2)c2cnnn2C)n1 [Example 87] | 3.55^[b] |
| CCCCCCOC(=O)Nc1cccc(CON=C(c2ccccc2)c2ncnn2C)n1 [Example 88] | 4.36^[b] |
| CCCOC(=O)Nc1cccc(CON=C(c2ccccc2)c2ncnn2C)n1 [Example 89] | 3.15^[b] |
| Cn1cncc1C(=NOCc1cccc(N2C(=O)c3ccccc3C2=O)n1)c1ccccc1 [Example 90] | 1.81^[b] |
| CCCCOC(=O)Nc1cccc(CON=C(c2ccccc2)c2ncnn2C)n1 [Example 91] | 3.53^[b] |
| Cn1ncnc1C(=NOCc1cccc(NC(=O)OCCCCCl)n1)c1ccccc1 [Example 92] | 3.39^[b] |
| CCOC(=O)Nc1cccc(CON=C(c2ccccc2)c2ncnn2C)n1 [Example 93] | 2.71^[b] |
| C#CCCOC(=O)Nc1cccc(CON=C(c2ccccc2)c2ncnn2C)n1 [Example 94] | 2.82^[b] |
| Cn1cncc1C(=NOCc1nccc(N)n1)c1ccccc1 [Example 95] | 0.01^[b] |
| CC(C)CC(=O)Nc1nc(CON=C(c2ccccc2)c2ncnn2C)cs1 [Example 96] | 2.88^[b] |

Same assay, conditions: reversed phase HPLC column, pH 2.7

| Compound | chromatographic logP |
| --- | --- |
| Cn1ncnc1C(=NOCc1cccc(N2C(=O)c3ccccc3C2=O)n1)c1ccccc1 [Example 13, 2-{6-[({[(1-methyl-1H-1,2,4-triazol-5-yl)(phenyl)methylene]amino}oxy)methyl]pyridin-2-yl}-1H-isoindole-1,3(2H)-dione] | 2.76 |
| CCCCCC(=O)Nc1cccc(CON=C(c2ccccc2)c2ncnn2C)n1 [Example 28, N-{6-[({[(1-methyl-1H-1,2,4-triazol-5-yl)(phenyl)methylene]amino}oxy)methyl]pyridin-2-yl}hexanamide] | 3.39 |
